For assay [1], the target named is Glycogen synthase kinase-3 beta (Homo sapiens, UniProt P49841). The note with it: at 10 µM.
Assay [2] concerns the target Tyrosine-protein kinase FRK (Homo sapiens) (UniProt P42685). Conditions: at 10 µM.
The target in assay [3] is Homeodomain-interacting protein kinase 2 (Homo sapiens, UniProt Q9H2X6). Briefly: Selectivity interaction (KinomeScan (DiscoverX)) EUB0000695a HIPK2. Conditions: at 100 nM.
Assay [4] deals with T1, Activin receptor type-1B (Homo sapiens) (UniProt P36896).
T1 sequence (whole entry): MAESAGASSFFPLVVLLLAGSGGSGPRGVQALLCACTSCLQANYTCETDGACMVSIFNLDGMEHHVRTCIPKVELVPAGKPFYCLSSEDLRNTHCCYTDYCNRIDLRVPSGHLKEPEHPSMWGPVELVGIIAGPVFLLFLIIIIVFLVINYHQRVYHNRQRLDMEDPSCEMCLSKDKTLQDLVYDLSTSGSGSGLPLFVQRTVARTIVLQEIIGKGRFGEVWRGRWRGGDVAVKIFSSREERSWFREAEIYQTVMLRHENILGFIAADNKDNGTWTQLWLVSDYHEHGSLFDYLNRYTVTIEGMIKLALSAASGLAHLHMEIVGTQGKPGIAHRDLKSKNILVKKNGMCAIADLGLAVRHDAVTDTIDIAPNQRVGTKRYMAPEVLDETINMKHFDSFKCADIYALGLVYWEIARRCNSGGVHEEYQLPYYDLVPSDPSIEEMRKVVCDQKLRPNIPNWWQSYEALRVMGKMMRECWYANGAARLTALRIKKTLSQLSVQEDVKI
Kind of assay: Selectivity interaction (KinomeScan (DiscoverX)) EUB0000045b ACVR1B.

The target in assay [5] is 5-hydroxytryptamine receptor 2B (Homo sapiens, UniProt P41595). Briefly: Selectivity interaction (GPCR panel (PDSP screen)) EUB0000311b HTR2B. Conditions: at 10 µM.
Sequence of 5-hydroxytryptamine receptor 2B (P41595 whole entry): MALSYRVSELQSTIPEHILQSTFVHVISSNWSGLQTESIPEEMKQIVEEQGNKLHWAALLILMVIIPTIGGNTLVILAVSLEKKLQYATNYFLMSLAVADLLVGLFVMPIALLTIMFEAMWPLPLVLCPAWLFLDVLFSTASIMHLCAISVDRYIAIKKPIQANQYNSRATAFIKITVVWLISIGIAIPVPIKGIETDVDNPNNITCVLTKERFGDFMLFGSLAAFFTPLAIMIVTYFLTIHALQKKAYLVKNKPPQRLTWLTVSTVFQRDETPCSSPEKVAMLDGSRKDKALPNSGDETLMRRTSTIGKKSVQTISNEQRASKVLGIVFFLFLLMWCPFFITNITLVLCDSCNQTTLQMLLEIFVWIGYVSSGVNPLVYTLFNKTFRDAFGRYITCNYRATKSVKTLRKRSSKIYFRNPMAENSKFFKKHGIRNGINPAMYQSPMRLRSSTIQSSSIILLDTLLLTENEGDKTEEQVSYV
Assay [6] deals with Cyclin-dependent kinase 1/cyclin B1 (Homo sapiens) (UniProt P06493+P14635). Kind of assay: (§1) Selectivity interaction (ProQinase) EUB0000171b CDK1. It is filed as protein-complex assay.
Sequence of Cyclin-dependent kinase 1/cyclin B1 (Homo sapiens) (P06493 whole entry, looked up): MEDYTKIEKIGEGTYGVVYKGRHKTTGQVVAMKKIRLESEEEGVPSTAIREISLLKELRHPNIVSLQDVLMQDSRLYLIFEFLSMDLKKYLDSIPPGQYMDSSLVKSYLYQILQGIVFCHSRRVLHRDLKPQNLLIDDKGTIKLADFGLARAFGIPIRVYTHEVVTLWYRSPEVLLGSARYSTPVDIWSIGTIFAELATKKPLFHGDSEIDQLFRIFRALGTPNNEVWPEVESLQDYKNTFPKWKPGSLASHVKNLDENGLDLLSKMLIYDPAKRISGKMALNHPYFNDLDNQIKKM
Sequence of Cyclin-dependent kinase 1/cyclin B1 (Homo sapiens) (P14635 whole entry, looked up): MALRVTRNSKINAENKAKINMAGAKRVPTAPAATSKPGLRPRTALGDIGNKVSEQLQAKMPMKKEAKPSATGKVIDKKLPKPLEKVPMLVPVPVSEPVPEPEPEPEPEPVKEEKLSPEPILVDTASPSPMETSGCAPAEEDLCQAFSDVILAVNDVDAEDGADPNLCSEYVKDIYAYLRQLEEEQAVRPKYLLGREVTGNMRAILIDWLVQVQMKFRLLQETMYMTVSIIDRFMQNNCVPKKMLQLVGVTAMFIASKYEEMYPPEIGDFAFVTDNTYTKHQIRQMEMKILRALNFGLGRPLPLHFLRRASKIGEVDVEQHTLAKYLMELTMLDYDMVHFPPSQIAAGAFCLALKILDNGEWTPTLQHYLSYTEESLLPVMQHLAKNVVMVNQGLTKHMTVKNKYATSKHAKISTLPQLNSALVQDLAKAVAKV
Assay [7] concerns the target CDK1/Cyclin A (Homo sapiens) (UniProt P06493+P20248). The description is as §1. It counts as protein-complex assay.
The target in assay [8] is CDK1/Cyclin E (Homo sapiens) (UniProt P06493+P24864). The assay is described as §1. It is filed as protein-complex assay.
Sequence of CDK1/Cyclin E (Homo sapiens) (P06493 whole entry, looked up): as the sequence (P06493 whole entry, looked up) above
Sequence of CDK1/Cyclin E (Homo sapiens) (P24864 whole entry, looked up): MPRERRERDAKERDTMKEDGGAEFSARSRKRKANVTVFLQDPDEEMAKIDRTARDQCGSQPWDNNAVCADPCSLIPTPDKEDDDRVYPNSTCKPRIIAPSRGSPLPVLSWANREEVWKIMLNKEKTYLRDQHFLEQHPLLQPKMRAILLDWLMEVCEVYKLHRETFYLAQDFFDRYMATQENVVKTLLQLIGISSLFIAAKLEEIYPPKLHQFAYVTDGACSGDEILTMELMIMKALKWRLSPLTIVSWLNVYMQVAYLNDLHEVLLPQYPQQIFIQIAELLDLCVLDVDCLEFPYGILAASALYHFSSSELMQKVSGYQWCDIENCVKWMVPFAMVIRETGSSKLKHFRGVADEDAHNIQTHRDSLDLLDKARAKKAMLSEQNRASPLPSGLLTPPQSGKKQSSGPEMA
For assay [9], the target named is Serine/threonine-protein kinase MARK1 (Homo sapiens) (UniProt Q9P0L2). Kind of assay: Selectivity interaction (Ambit KINOMEscan and KiNATiv profiling in Jurkat cells) EUB0000090b MARK1. It counts as cell-based. The note with it: at 1 µM.
Sequence of Serine/threonine-protein kinase MARK1 (Homo sapiens) (Q9P0L2 whole entry, looked up): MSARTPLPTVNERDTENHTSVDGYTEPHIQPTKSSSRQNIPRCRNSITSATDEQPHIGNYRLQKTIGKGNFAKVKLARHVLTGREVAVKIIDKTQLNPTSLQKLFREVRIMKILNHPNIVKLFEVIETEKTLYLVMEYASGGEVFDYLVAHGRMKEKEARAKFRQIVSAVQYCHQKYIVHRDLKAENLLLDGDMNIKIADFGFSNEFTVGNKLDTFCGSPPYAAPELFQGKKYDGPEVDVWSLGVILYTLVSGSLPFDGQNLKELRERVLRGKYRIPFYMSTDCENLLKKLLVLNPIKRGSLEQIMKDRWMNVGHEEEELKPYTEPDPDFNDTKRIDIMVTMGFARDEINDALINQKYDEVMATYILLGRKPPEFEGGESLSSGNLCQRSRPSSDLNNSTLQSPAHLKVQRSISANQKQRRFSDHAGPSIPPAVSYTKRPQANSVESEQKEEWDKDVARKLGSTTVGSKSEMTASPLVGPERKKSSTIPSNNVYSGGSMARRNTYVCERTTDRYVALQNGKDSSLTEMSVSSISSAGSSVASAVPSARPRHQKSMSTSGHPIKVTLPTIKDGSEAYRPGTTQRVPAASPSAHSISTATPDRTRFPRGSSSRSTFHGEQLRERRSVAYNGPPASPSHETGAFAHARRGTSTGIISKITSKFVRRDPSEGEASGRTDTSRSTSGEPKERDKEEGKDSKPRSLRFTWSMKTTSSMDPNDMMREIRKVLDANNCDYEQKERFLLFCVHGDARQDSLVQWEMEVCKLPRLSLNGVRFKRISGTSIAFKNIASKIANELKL
Assay [10] deals with Macrophage colony-stimulating factor 1 receptor (Homo sapiens) (UniProt P07333). Briefly: Selectivity interaction (Ambit KINOMEscan and KiNATiv profiling in Jurkat cells) EUB0000090b CSF1R. It counts as cell-based. The note with it: at 1 µM.
The target of assay [11] is Citron Rho-interacting kinase (Homo sapiens) (UniProt O14578). Kind of assay: Selectivity interaction (KinomeScan (DiscoverX)) EUB0001049a CIT. The note with it: at 1 µM.
For assay [12], the target named is Tyrosine-protein kinase JAK2 (Homo sapiens, UniProt O60674). Kind of assay: Selectivity interaction (Upstate Kinase Profiler service (Millipore)) EUB0000056c JAK2. Conditions: at 1 µM.
In assay [13] the target is T2, Serine/threonine-protein kinase DCLK2 (Homo sapiens) (UniProt Q8N568).
T2 sequence (whole entry): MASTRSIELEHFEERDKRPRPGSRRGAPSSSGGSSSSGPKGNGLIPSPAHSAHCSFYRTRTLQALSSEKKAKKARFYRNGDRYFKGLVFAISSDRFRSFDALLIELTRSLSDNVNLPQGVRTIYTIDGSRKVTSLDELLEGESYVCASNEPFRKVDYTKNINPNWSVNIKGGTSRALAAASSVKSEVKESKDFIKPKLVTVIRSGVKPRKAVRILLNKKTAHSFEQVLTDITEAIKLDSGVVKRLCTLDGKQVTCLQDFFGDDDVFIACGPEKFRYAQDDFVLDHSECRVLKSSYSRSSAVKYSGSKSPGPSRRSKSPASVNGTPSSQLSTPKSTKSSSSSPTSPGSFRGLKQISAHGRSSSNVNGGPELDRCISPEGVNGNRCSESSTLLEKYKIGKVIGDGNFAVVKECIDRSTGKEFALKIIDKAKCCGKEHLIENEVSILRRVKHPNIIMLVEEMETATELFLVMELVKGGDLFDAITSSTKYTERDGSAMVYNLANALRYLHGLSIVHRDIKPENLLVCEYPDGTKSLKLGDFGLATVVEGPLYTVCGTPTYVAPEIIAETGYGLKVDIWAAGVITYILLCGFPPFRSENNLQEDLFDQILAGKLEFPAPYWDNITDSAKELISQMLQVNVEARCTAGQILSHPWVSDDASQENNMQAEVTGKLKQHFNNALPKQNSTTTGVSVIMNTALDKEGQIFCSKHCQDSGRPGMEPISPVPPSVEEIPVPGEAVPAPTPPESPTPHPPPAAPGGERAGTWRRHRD
Briefly: Selectivity interaction (KinomeScan (DiscoverX)) EUB0000655a DCLK2. Conditions: at 10 µM.

Assay [14] deals with T3, Eukaryotic elongation factor 2 kinase (Homo sapiens) (UniProt O00418).
T3 sequence (whole entry): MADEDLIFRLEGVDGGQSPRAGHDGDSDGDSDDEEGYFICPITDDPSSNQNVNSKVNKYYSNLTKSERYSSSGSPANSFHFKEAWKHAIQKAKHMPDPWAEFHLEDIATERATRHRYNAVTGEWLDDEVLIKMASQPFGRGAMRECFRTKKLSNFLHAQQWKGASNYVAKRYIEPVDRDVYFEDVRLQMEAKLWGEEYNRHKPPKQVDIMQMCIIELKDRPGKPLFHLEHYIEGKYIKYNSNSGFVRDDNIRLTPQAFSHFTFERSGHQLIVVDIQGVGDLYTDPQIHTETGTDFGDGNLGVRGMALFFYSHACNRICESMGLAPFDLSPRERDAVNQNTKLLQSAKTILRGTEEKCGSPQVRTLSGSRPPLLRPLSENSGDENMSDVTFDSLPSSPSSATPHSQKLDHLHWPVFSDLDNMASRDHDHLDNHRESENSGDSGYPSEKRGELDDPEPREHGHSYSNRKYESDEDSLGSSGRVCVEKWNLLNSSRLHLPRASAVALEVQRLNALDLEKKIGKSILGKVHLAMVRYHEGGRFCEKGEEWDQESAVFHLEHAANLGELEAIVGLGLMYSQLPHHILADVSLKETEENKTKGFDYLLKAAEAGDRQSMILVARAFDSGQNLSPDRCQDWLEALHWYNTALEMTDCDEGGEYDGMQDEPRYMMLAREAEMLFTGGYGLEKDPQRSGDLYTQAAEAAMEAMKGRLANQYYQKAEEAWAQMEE
Briefly: Selectivity interaction (Kinase panel (KiNativ target engagement assay in Jurkat cells)) EUB0001635a EEF2K. It is filed as cell-based. Conditions: Selectivity number of off-targets 0.0, Selectivity number of targets 233.0, Source Knowledge https://www.sciencedirect.com/science/article/pii/S2451945619300674?via%3Dihub, at 1 µM.

Sequence of CDK1/Cyclin A (Homo sapiens) (P06493 whole entry, looked up): as the sequence (P06493 whole entry, looked up) above
Sequence of CDK1/Cyclin A (Homo sapiens) (P20248 whole entry, looked up): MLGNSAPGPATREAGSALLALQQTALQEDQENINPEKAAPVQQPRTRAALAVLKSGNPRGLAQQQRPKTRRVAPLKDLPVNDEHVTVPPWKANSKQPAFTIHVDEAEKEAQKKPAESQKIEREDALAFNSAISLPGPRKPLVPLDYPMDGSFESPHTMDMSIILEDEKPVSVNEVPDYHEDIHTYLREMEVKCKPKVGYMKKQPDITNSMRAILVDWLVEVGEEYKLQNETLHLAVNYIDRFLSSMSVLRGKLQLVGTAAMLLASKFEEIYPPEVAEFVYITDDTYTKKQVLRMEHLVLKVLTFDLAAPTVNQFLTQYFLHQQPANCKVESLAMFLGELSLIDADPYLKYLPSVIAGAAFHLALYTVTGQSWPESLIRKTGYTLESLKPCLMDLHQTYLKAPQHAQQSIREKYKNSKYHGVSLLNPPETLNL
Sequence of Homeodomain-interacting protein kinase 2 (Q9H2X6 whole entry, looked up): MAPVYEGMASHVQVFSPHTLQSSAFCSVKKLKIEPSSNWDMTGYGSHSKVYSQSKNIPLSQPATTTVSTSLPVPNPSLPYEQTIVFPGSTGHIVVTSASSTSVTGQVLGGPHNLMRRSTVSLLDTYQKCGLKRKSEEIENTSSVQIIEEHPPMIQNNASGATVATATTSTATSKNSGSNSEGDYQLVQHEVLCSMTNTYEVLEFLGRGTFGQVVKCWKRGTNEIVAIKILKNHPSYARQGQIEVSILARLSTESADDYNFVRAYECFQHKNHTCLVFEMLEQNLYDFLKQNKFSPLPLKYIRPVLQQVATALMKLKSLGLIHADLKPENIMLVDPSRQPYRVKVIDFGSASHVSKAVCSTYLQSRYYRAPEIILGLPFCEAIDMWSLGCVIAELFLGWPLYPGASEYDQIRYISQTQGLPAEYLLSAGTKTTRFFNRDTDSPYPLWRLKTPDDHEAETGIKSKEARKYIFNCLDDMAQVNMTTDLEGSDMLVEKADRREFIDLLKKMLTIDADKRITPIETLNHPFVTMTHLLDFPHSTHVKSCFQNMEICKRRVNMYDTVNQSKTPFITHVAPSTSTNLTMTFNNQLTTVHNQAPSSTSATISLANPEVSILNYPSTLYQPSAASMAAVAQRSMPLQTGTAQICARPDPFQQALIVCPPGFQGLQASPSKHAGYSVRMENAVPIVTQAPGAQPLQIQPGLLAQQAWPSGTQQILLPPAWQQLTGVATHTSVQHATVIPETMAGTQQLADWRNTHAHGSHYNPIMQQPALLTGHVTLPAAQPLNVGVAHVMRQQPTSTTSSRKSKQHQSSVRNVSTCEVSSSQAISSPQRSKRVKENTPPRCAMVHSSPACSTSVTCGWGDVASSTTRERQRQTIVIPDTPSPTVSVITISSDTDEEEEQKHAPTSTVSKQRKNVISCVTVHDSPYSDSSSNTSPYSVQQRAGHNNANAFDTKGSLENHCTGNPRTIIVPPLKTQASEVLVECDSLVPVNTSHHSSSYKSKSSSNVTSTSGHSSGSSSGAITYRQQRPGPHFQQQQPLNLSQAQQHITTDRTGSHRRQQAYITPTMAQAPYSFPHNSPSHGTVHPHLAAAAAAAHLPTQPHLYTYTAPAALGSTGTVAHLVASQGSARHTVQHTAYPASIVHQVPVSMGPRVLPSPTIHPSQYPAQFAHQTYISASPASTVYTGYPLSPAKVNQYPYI

In the case of `CCN(CC)CCCCNc1ncc2cc(-c3cc(OC)cc(OC)c3)c(NC(=O)NC(C)(C)C)nc2n1`, the % of control in assay [1] and in assay [2] was 100% in each case. As to `Cc1cc(F)c(C(=O)Nc2cccc(-c3nncn3C(C)C)n2)cc1-n1cnc(C2CC2)c1`, in assay [3], the % of control turned out to be 83%. In the case of `C=CC(=O)Nc1cc(-n2c(=O)ccc3cnc4ccc(-c5ccc(NS(C)(=O)=O)cc5)cc4c32)ccc1C`, the % of control in [4] (at 1 µM) came out at 84%; in [4] (at 10 µM), 100%. The compound `CCc1ccccc1C(=O)Nc1n[nH]c2c(C)c(F)c(C3C(C#N)=C(C)N(C)C(C)=C3C#N)cc12` [BAY-3827] showed a % of inhibition in assay [5] of 32.5%. With `C=CC(=O)Nc1cccc(C(=O)Nc2ccc(Nc3cc(-c4[nH]c(SC)nc4C)ccn3)cc2)c1`, the % of control in assay [6] (at 1 µM) was 94%; in assay [6] (at 5 µM), 77%; in assay [7] (at 1 µM), 89%; in assay [7] (at 5 µM), 79%; in [8] (at 1 µM), 90%; in [8] (at 5 µM), 74%. For `CN(C)C/C=C/C(=O)Nc1ccc(C(=O)N2CCCC(Nc3ncc(Cl)c(-c4c[nH]c5ccccc45)n3)C2)cc1` (stereo not drawn), the % of control in [9] was 100%; in [10], 86%. `COc1cc(Nc2nc(C)cc(-c3cnn4nc(OC)ccc34)n2)cc(C(F)(F)F)c1` yielded a % of control in [11] of 100%.

In assay [12], `Cc1ccc(-c2ccc3c(ccc4sc5c(c43)NC[C@@H](C)NC5=O)n2)cn1` showed a % of inhibition of 14%. For the compound `CN(C)CCOc1ccc(-c2nc(-c3ccncc3)c(-c3ccc4c(c3)CC/C4=N\O)[nH]2)cc1`, in assay [13], the % of control came out at 100%. For `C=CC(=O)Nc1ccc(C(=O)Nc2[nH]nc3c2CN(C(=O)N[C@H](CN(C)C)c2ccccc2)C3(C)C)cc1`, the % of engagement in assay [14] is -14.2%.

The values are drawn from ChEMBL document CHEMBL5465560, “Selectivity Literature for EUbOPEN Chemogenomic Library” (2024).
